The test system of one data set is human CYP1A2. The data set is described as follows: Reporter assay in HepG2 cells: secreted alkaline phosphatase (SEAP) activity, which reflects CYP1A2. The conditions noted are these: for reporter activity (SEAP) compared with DMSO: expression vector K, L or P (only region neighboring CYP1A2); for reporter activity (SEAP) compared with DMSO / reporter activity (SEAP): 40 hours; for reporter activity (SEAP): expression vector M; for SEAP activity compared with the group where DMSO alone was added: reporter vectors A to J, N, O, T and U, 40 hours after addition, 3-MC 1 μM, BNF 10 μM. Format: cell-based. (In a reporter assay the amount or activity of a reporter protein is the signal.)

For data set [1], the system named is transcriptional regulatory region of human CYP1A1 and CYP1A2. The data set is described as follows: Reporter assay in HepG2 cells with dual reporter vectors, reporter (SEAP/Luc) not distinguished in the statement. The conditions noted are these: for enhancement of expression of the reporter: reporter vector T (comprises XRE E8, lacks 1535 to 2866); for induction of expression of the reporter: reporter vector U (does not comprise XRE E8); for reporter activities compared with DMSO: reporter vectors E1 to E5 (each one XRE deleted), E3 slightly lower; for enhancement of the expression of the reporter: reporter vectors comprising nucleotide numbers 1535 to 2867 in SEQ ID NO: 1 (XREs densely exist), HepG2.
Procedure: (§1) Each of the obtained reporter vector comprising the transcriptional regulatory region of human CYP1A1 and CYP1A2 and reporter vectors comprising the transcriptional regulatory region partially deleted was transiently expressed in HepG2 cells (purchased from RIKEN) by using a transfection reagent (FuGene6, Roche), and 40 hours after the addition of a drug dissolved in DMSO or DMSO alone, the activity of a secreted alkaline phosphatase (SEAP), which reflects CYP1A2, and the activity of a luciferase (Luc), which reflects CYP1A1, were measured. LumiPhos 530 (Lumigen Inc.) was used as a substrate for the measurement of the SEAP activity.
A reporter assay was performed by using the obtained vectors.

Another data set deals with human CYP1A1. The data set is described as follows: Reporter assay in HepG2 cells: luciferase (Luc) activity, which reflects CYP1A1. The conditions noted are these: reporter vectors A to J, N, O, T and U, 40 hours after addition, 3-MC 1 μM, BNF 10 μM.

The structures appear in SMILES notation.

Procedure for human CYP1A2: as §1
In the same manner as that in 4, the expression vectors K to M and P to S obtained above were transiently expressed in HepG2 cells by using the gene transfer reagent, and 40 hours after the addition of a drug dissolved in DMSO or DMSO alone, activity of a secreted alkaline phosphatase (SEAP) was measured (FIG. 5).
In the same manner as that in 4, each of the expression vectors A to J, N, O, T and U was transiently expressed in HepG2 cells by using the transfection reagent, and 40 hours after the addition of a drug dissolved in DMSO or DMSO alone, activity of a secreted alkaline phosphatase (SEAP), which reflects CYP1A2, and activity of a luciferase (Luc), which reflects CYP1A1, were measured.

In the case of `Cc1ccc2cc3c(ccc4ccccc43)c3c2c1CC3` [3-MC, 3-methylcholanthrene], in the data set on human CYP1A2, the “reporter activity (SEAP) compared with DMSO” value is listed as roughly 1 fold; the “reporter activity (SEAP)” value is on record as “at the background level”; the “SEAP activity compared with the group where DMSO alone was added” value is “increase in the SEAP activity and Luc activity was observed”. In data set [1], the “enhancement of expression of the reporter” value was “strong enhancement of expression”, the “induction of expression of the reporter” value is given as “did not show the induction”, the “reporter activities compared with DMSO” value is “several folds to 10 or more folds higher” and the “enhancement of the expression of the reporter” value is recorded as “intense enhancement of the expression”. For the same molecule, the “Luc activity compared with the group where DMSO alone was added” value with human CYP1A1 is “increase in the SEAP activity and Luc activity was observed”.
Turning to `O=c1cc(-c2ccccc2)oc2ccc3ccccc3c12` [BNF, β-naphthoflavone], in the data set on human CYP1A2, the “reporter activity (SEAP) compared with DMSO” value is on record as roughly 1 fold; the “reporter activity (SEAP)” value was “at the background level”; the “SEAP activity compared with the group where DMSO alone was added” value was “increase in the SEAP activity and Luc activity was observed”. Moreover, in data set [1], the “enhancement of expression of the reporter” value was “strong enhancement of expression”, the “induction of expression of the reporter” value is given as “did not show the induction”, the “reporter activities compared with DMSO” value is recorded as “several folds to 10 or more folds higher” and the “enhancement of the expression of the reporter” value was “intense enhancement of the expression”. In the data set with human CYP1A1, the “Luc activity compared with the group where DMSO alone was added” value was “increase in the SEAP activity and Luc activity was observed”.
`COc1ccc2[nH]c([S+]([O-])Cc3ncc(C)c(OC)c3C)nc2c1` (centres unmarked) [omeprazole]: the “reporter activities compared with DMSO” value in data set [1] is “several folds to 10 or more folds higher”.

For the origin of these results see US7910362B2, “Reporter vector for use in evaluation of CYP1A2 induction” (Eisai R&D Management Co., Ltd., priority 2005, dated 2011).
